# In the supplement of paper PMC10733146:
# What was measured:
# Assay in all cases: viability relative to DMSO control (fraction); higher = less drug effect (more viable cells)
# Details in all cases: 48 h
# Obatoclax mesylate = compound: COC1=CC(c2cc3ccccc3[nH]2)=N/C1=C\c1[nH]c(C)cc1C [Obatoclax mesylate]
# In short: (§1)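 The cells were primary mononuclear tumour cells, either fresh or cryopreserved, isolated by Ficoll from blood or bone marrow or derived from processed lymph node. Each well of a 384-well plate received 4 × 10^4 cells onto compounds pre-plated at five concentrations, with one well per concentration. The medium was RPMI-1640 with penicillin/streptomycin, L-glutamine and human serum, and plates stood at 37 °C and 5% CO2 for 48 h. Viability is reported as CellTiter-Glo luminescence relative to the median of 16 inner DMSO wells.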
# TMP269 = compound: O=C(NCC1(c2nc(-c3ccccc3)cs2)CCOCC1)c1cccc(-c2noc(C(F)(F)F)n2)c1 [TMP269]
# In short: as §1
# ERK5-IN-1 = compound: CCOc1cc(C(=O)N2CCC(N3CCN(C)CC3)CC2)ccc1Nc1ncc2c(n1)N(C1CCCC1)c1ccccc1C(=O)N2C [ERK5-IN-1]
# In short: as §1
# AZD7762 = compound: NC(=O)Nc1cc(-c2cccc(F)c2)sc1C(=O)N[C@H]1CCCNC1 [AZD7762]
# In short: as §1
# Imatinib = compound: Cc1ccc(NC(=O)c2ccc(CN3CCN(C)CC3)cc2)cc1Nc1nccc(-c2cccnc2)n1 [Imatinib]
# In short: as §1
# Iniparib = compound: NC(=O)c1ccc(I)c([N+](=O)[O-])c1 [Iniparib]
# In short: as §1
# Pralatrexate = compound: C#CCC(Cc1cnc2nc(N)nc(N)c2n1)c1ccc(C(=O)N[C@@H](CCC(=O)O)C(=O)O)cc1 [Pralatrexate]
# In short: as §1
# Cladribine = compound: Nc1nc(Cl)nc2c1ncn2[C@H]1C[C@H](O)[C@@H](CO)O1 [Cladribine]
# In short: as §1
# Birinapant = compound: CC[C@H](NC(=O)[C@H](C)NC)C(=O)N1C[C@@H](O)C[C@H]1Cc1c(-c2[nH]c3cc(F)ccc3c2C[C@@H]2C[C@H](O)CN2C(=O)[C@H](CC)NC(=O)[C@H](C)NC)[nH]c2cc(F)ccc12 [Birinapant]
# In short: as §1
# MLN-120B = compound: COc1c(Cl)cc2c([nH]c3cnccc32)c1NC(=O)c1cccnc1C [MLN-120B]
# In short: as §1
# Vorinostat = compound: O=C(CCCCCCC(=O)Nc1ccccc1)NO [Vorinostat]
# In short: as §1
# Ribociclib = compound: CN(C)C(=O)c1cc2cnc(Nc3ccc(N4CCNCC4)cn3)nc2n1C1CCCC1 [Ribociclib]
# In short: as §1
# Panobinostat = compound: Cc1[nH]c2ccccc2c1CCNCc1ccc(/C=C/C(=O)NO)cc1 [Panobinostat]
# In short: as §1
# Idarubicin = compound: CC(=O)[C@]1(O)Cc2c(O)c3c(c(O)c2[C@@H](O[C@H]2C[C@H](N)[C@H](O)[C@H](C)O2)C1)C(=O)c1ccccc1C3=O [Idarubicin]
# In short: as §1
# Pentostatin = compound: OC[C@H]1O[C@@H](n2cnc3c2N=CNC[C@H]3O)C[C@@H]1O [Pentostatin]
# In short: as §1
test system,measurement,setting,value
primary AML patient cells (S060),viability,Obatoclax mesylate; 0.024 µM,1.04
same,viability,Obatoclax mesylate; 0.12 µM,0.957
same,viability,Obatoclax mesylate; 0.6 µM,0.864
same,viability,Obatoclax mesylate; 3 µM,0.507
same,viability,Obatoclax mesylate; 15 µM,0.139
same,viability,TMP269; 0.024 µM,1.06
same,viability,TMP269; 0.12 µM,1.12
same,viability,TMP269; 0.6 µM,1.14
same,viability,TMP269; 3 µM,1.04
same,viability,TMP269; 15 µM,1.04
same,viability,ERK5-IN-1; 0.024 µM,1.01
same,viability,ERK5-IN-1; 0.12 µM,0.981
same,viability,ERK5-IN-1; 0.6 µM,0.987
same,viability,ERK5-IN-1; 3 µM,0.769
same,viability,ERK5-IN-1; 15 µM,0.239
same,viability,AZD7762; 0.024 µM,0.95
same,viability,AZD7762; 0.12 µM,0.913
same,viability,AZD7762; 0.6 µM,0.174
same,viability,AZD7762; 3 µM,0.153
same,viability,AZD7762; 15 µM,0.084
same,viability,Imatinib; 0.016 µM,1.06
same,viability,Imatinib; 0.4 µM,1.05
same,viability,Imatinib; 2 µM,0.971
same,viability,Imatinib; 10 µM,1.04
same,viability,Iniparib; 0.024 µM,1.13
same,viability,Iniparib; 0.12 µM,1.04
same,viability,Iniparib; 0.6 µM,0.988
same,viability,Iniparib; 3 µM,1.02
same,viability,Iniparib; 15 µM,0.885
same,viability,Pralatrexate; 0.024 µM,0.822
same,viability,Pralatrexate; 0.12 µM,0.789
same,viability,Pralatrexate; 0.6 µM,0.832
same,viability,Pralatrexate; 3 µM,0.779
same,viability,Pralatrexate; 15 µM,0.8
same,viability,Cladribine; 0.024 µM,1.02
same,viability,Cladribine; 0.12 µM,0.711
same,viability,Cladribine; 0.6 µM,0.249
same,viability,Cladribine; 3 µM,0.0776
same,viability,Cladribine; 15 µM,0.0416
same,viability,Birinapant; 0.0008 µM,0.911
same,viability,Birinapant; 0.004 µM,0.928
same,viability,Birinapant; 0.02 µM,0.95
same,viability,Birinapant; 0.1 µM,0.886
same,viability,Birinapant; 0.5 µM,0.793
same,viability,MLN-120B; 0.024 µM,1.05
same,viability,MLN-120B; 0.12 µM,1.05
same,viability,MLN-120B; 0.6 µM,1.07
same,viability,MLN-120B; 3 µM,1.03
same,viability,MLN-120B; 15 µM,0.969
same,viability,Vorinostat; 0.016 µM,1.04
same,viability,Vorinostat; 0.08 µM,1.09
same,viability,Vorinostat; 0.4 µM,1.02
same,viability,Vorinostat; 2 µM,0.389
same,viability,Vorinostat; 10 µM,0.0514
same,viability,Ribociclib; 0.024 µM,1.06
same,viability,Ribociclib; 0.12 µM,1.05
same,viability,Ribociclib; 0.6 µM,1.05
same,viability,Ribociclib; 3 µM,0.973
same,viability,Ribociclib; 15 µM,0.913
same,viability,Panobinostat; 0.00064 µM,1.08
same,viability,Panobinostat; 0.0032 µM,1.04
same,viability,Panobinostat; 0.016 µM,0.379
same,viability,Panobinostat; 0.08 µM,0.0487
same,viability,Panobinostat; 0.4 µM,0.0408
same,viability,Idarubicin; 0.024 µM,1.14
same,viability,Idarubicin; 0.12 µM,1.04
same,viability,Idarubicin; 0.6 µM,0.463
same,viability,Idarubicin; 3 µM,0.0162
same,viability,Idarubicin; 15 µM,0.0156
same,viability,Pentostatin; 0.03 µM,0.965
same,viability,Pentostatin; 0.15 µM,0.979
same,viability,Pentostatin; 0.75 µM,1
same,viability,Pentostatin; 3.75 µM,1.02
same,viability,Pentostatin; 18.76 µM,0.921
primary AML patient cells (S021),viability,Obatoclax mesylate; 0.024 µM,1.03
same,viability,Obatoclax mesylate; 0.12 µM,0.979
same,viability,Obatoclax mesylate; 0.6 µM,0.852
same,viability,Obatoclax mesylate; 3 µM,0.578
same,viability,Obatoclax mesylate; 15 µM,0.156
same,viability,TMP269; 0.024 µM,0.983
same,viability,TMP269; 0.12 µM,0.926
same,viability,TMP269; 0.6 µM,0.93
same,viability,TMP269; 3 µM,0.874
same,viability,TMP269; 15 µM,0.834
same,viability,ERK5-IN-1; 0.024 µM,0.877
same,viability,ERK5-IN-1; 0.12 µM,0.864
same,viability,ERK5-IN-1; 0.6 µM,0.814
same,viability,ERK5-IN-1; 3 µM,0.706
same,viability,ERK5-IN-1; 15 µM,0.249
same,viability,AZD7762; 0.024 µM,0.621
same,viability,AZD7762; 0.12 µM,0.681
same,viability,AZD7762; 0.6 µM,0.61
same,viability,AZD7762; 3 µM,0.727
same,viability,AZD7762; 15 µM,0.736
same,viability,Imatinib; 0.016 µM,0.979
same,viability,Imatinib; 0.4 µM,0.95
same,viability,Imatinib; 2 µM,0.99
same,viability,Imatinib; 10 µM,0.722
same,viability,Iniparib; 0.024 µM,1.03
same,viability,Iniparib; 0.12 µM,1.14
same,viability,Iniparib; 0.6 µM,1.08
same,viability,Iniparib; 3 µM,1.11
same,viability,Iniparib; 15 µM,0.762
same,viability,Pralatrexate; 0.024 µM,0.99
same,viability,Pralatrexate; 0.12 µM,0.982
same,viability,Pralatrexate; 0.6 µM,0.99
same,viability,Pralatrexate; 3 µM,0.989
same,viability,Pralatrexate; 15 µM,0.965
same,viability,Cladribine; 0.024 µM,0.461
same,viability,Cladribine; 0.12 µM,0.289
same,viability,Cladribine; 0.6 µM,0.208
same,viability,Cladribine; 3 µM,0.202
same,viability,Cladribine; 15 µM,0.179
same,viability,Birinapant; 0.0008 µM,0.779
same,viability,Birinapant; 0.004 µM,0.8
same,viability,Birinapant; 0.02 µM,0.799
same,viability,Birinapant; 0.1 µM,0.58
same,viability,Birinapant; 0.5 µM,0.345
same,viability,MLN-120B; 0.024 µM,0.834
same,viability,MLN-120B; 0.12 µM,0.83
same,viability,MLN-120B; 0.6 µM,0.798
same,viability,MLN-120B; 3 µM,0.668
same,viability,MLN-120B; 15 µM,0.609
same,viability,Vorinostat; 0.016 µM,0.918
same,viability,Vorinostat; 0.08 µM,0.859
same,viability,Vorinostat; 0.4 µM,0.626
same,viability,Vorinostat; 2 µM,0.404
same,viability,Vorinostat; 10 µM,0.304
same,viability,Ribociclib; 0.024 µM,0.926
same,viability,Ribociclib; 0.12 µM,0.948
same,viability,Ribociclib; 0.6 µM,0.939
same,viability,Ribociclib; 3 µM,0.788
same,viability,Ribociclib; 15 µM,0.503
same,viability,Panobinostat; 0.00064 µM,0.788
same,viability,Panobinostat; 0.0032 µM,0.611
same,viability,Panobinostat; 0.016 µM,0.347
same,viability,Panobinostat; 0.08 µM,0.271
same,viability,Panobinostat; 0.4 µM,0.242
same,viability,Idarubicin; 0.024 µM,0.308
same,viability,Idarubicin; 0.12 µM,0.223
same,viability,Idarubicin; 0.6 µM,0.156
same,viability,Idarubicin; 3 µM,0.127
same,viability,Idarubicin; 15 µM,0.0975
same,viability,Pentostatin; 0.03 µM,1.01
same,viability,Pentostatin; 0.15 µM,1.03
same,viability,Pentostatin; 0.75 µM,1.05
same,viability,Pentostatin; 3.75 µM,0.951
same,viability,Pentostatin; 18.76 µM,0.608
primary B-PLL patient cells (S016),viability,Obatoclax mesylate; 0.024 µM,1
same,viability,Obatoclax mesylate; 0.12 µM,0.755
same,viability,Obatoclax mesylate; 0.6 µM,0.467
same,viability,Obatoclax mesylate; 3 µM,0.31
same,viability,Obatoclax mesylate; 15 µM,0.0716
same,viability,TMP269; 0.024 µM,1
same,viability,TMP269; 0.12 µM,1.11
same,viability,TMP269; 0.6 µM,1.05
same,viability,TMP269; 3 µM,1.07
same,viability,TMP269; 15 µM,1.06
same,viability,ERK5-IN-1; 0.024 µM,1.03
same,viability,ERK5-IN-1; 0.12 µM,0.97
same,viability,ERK5-IN-1; 0.6 µM,1.02
same,viability,ERK5-IN-1; 3 µM,0.853
same,viability,ERK5-IN-1; 15 µM,0.548
same,viability,AZD7762; 0.024 µM,0.508
same,viability,AZD7762; 0.12 µM,0.619
same,viability,AZD7762; 0.6 µM,0.702
same,viability,AZD7762; 3 µM,0.758
same,viability,AZD7762; 15 µM,0.358
same,viability,Imatinib; 0.016 µM,1.07
same,viability,Imatinib; 0.08 µM,0.938
same,viability,Imatinib; 0.4 µM,1.1
same,viability,Imatinib; 2 µM,0.793
same,viability,Imatinib; 10 µM,0.66
same,viability,Iniparib; 0.024 µM,1.1
same,viability,Iniparib; 0.12 µM,1.01
same,viability,Iniparib; 0.6 µM,0.996
same,viability,Iniparib; 3 µM,0.921
same,viability,Iniparib; 15 µM,0.882
same,viability,Pralatrexate; 0.024 µM,0.982
same,viability,Pralatrexate; 0.12 µM,0.945
same,viability,Pralatrexate; 0.6 µM,0.979
same,viability,Pralatrexate; 3 µM,0.909
same,viability,Pralatrexate; 15 µM,1
same,viability,Cladribine; 0.024 µM,0.855
same,viability,Cladribine; 0.12 µM,0.645
same,viability,Cladribine; 0.6 µM,0.252
same,viability,Cladribine; 3 µM,0.105
same,viability,Cladribine; 15 µM,0.0548
same,viability,Birinapant; 0.0008 µM,0.974
same,viability,Birinapant; 0.004 µM,0.97
same,viability,Birinapant; 0.02 µM,0.973
same,viability,Birinapant; 0.1 µM,1.06
same,viability,Birinapant; 0.5 µM,1.19
same,viability,MLN-120B; 0.024 µM,0.915
same,viability,MLN-120B; 0.12 µM,0.98
same,viability,MLN-120B; 0.6 µM,0.926
same,viability,MLN-120B; 3 µM,0.887
same,viability,MLN-120B; 15 µM,0.716
same,viability,Vorinostat; 0.016 µM,0.995
same,viability,Vorinostat; 0.08 µM,0.87
same,viability,Vorinostat; 0.4 µM,0.578
same,viability,Vorinostat; 2 µM,0.169
same,viability,Vorinostat; 10 µM,0.0399
same,viability,Ribociclib; 0.024 µM,1.01
same,viability,Ribociclib; 0.12 µM,1.03
same,viability,Ribociclib; 0.6 µM,1.09
same,viability,Ribociclib; 3 µM,1.05
same,viability,Ribociclib; 15 µM,0.84
same,viability,Panobinostat; 0.00064 µM,0.824
same,viability,Panobinostat; 0.0032 µM,0.424
same,viability,Panobinostat; 0.016 µM,0.0534
same,viability,Panobinostat; 0.08 µM,0.0414
same,viability,Panobinostat; 0.4 µM,0.0709
same,viability,Idarubicin; 0.024 µM,0.188
same,viability,Idarubicin; 0.12 µM,0.0649
same,viability,Idarubicin; 0.6 µM,0.0214
same,viability,Idarubicin; 3 µM,0.0129
same,viability,Idarubicin; 15 µM,0.00911
same,viability,Pentostatin; 0.03 µM,0.743
same,viability,Pentostatin; 0.15 µM,0.765
same,viability,Pentostatin; 0.75 µM,1.07
same,viability,Pentostatin; 3.75 µM,0.894
same,viability,Pentostatin; 18.76 µM,0.736
